Results: the supplement of paper PMC4862054

Key:
MDA-MB-231 [1] = assay: normalised viability (% of control), CellTiter-Blue; higher = more viable cells (100 = DMSO, 0 = benzethonium chloride kill control); conditions: 1 nM; incubation time: 72 h
Method: (§1)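 DSRT, CellTiter-Blue viability, 72 h incubation. Signal is normalised to DMSO and benzethonium chloride controls. Value is the normalised response at dose 1.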

CAL-148 [2] = assay: as above; conditions: 1 nM; incubation time: 72 h
Method: as §1

HDQ-P1 [3] = assay: as above; conditions: 1 nM; incubation time: 72 h
Method: as §1

BT-549 [4] = assay: as above; conditions: 1 nM; incubation time: 72 h
Method: as §1

MDA-MB-453 [5] = assay: as above; conditions: 1 nM; incubation time: 72 h
Method: as §1

BT-474 [6] = assay: as above; conditions: 1 nM; incubation time: 72 h
Method: as §1

MFM-223 [7] = assay: as above; conditions: 1 nM; incubation time: 72 h
Method: as §1

DU-4475 [8] = assay: as above; conditions: 1 nM; incubation time: 72 h
Method: as §1

HCC1143 [9] = assay: as above; conditions: 1 nM; incubation time: 72 h
Method: as §1

SK-BR-3 [10] = assay: as above; conditions: 1 nM; incubation time: 72 h
Method: as §1

CAL-120 = assay: as above; conditions: 1 nM; incubation time: 72 h
Method: as §1

MDA-MB-468 [11] = assay: as above; conditions: 1 nM; incubation time: 72 h
Method: as §1

CAL-51 [12] = assay: as above; conditions: 1 nM; incubation time: 72 h
Method: as §1

CAL-85-1 = assay: as above; conditions: 1 nM; incubation time: 72 h
Method: as §1

HCC1937 [13] = assay: as above; conditions: 1 nM; incubation time: 72 h
Method: as §1

HCC1599 [14] = assay: as above; conditions: 1 nM; incubation time: 72 h
Method: as §1

MDA-MB-231 [15] = assay: normalised viability (% of control), CellTiter-Blue; higher = more viable cells (about 100 = DMSO control); conditions: 100 nM; incubation time: 72 h
Method: (§2)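 DSRT, CellTiter-Blue viability, 72 h incubation. Signal is normalised to DMSO and benzethonium chloride controls. Value is the normalised response at dose 3.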

Hs578T = assay: as above; conditions: 100 nM; incubation time: 72 h
Method: as §2

CAL-148 [16] = assay: as above; conditions: 10 nM; incubation time: 72 h
Method: as §2

HDQ-P1 [17] = assay: as above; conditions: 10 nM; incubation time: 72 h
Method: as §2

BT-549 [18] = assay: as above; conditions: 100 nM; incubation time: 72 h
Method: as §2

MDA-MB-453 [19] = assay: as above; conditions: 10 nM; incubation time: 72 h
Method: as §2

BT-474 [20] = assay: as above; conditions: 100 nM; incubation time: 72 h
Method: as §2

MFM-223 [21] = assay: as above; conditions: 100 nM; incubation time: 72 h
Method: as §2

DU-4475 [22] = assay: as above; conditions: 10 nM; incubation time: 72 h
Method: as §2

HCC1143 [23] = assay: as above; conditions: 100 nM; incubation time: 72 h
Method: as §2

SK-BR-3 [24] = assay: as above; conditions: 100 nM; incubation time: 72 h
Method: as §2

MDA-MB-468 [25] = assay: as above; conditions: 100 nM; incubation time: 72 h
Method: as §2

CAL-51 [26] = assay: as above; conditions: 10 nM; incubation time: 72 h
Method: as §2

HCC1937 [27] = assay: as above; conditions: 100 nM; incubation time: 72 h
Method: as §2

HCC1599 [28] = assay: as above; conditions: 100 nM; incubation time: 72 h
Method: as §2

MDA-MB-436 = assay: as above; conditions: 100 nM; incubation time: 72 h
Method: as §2

Compound | normalised viability (MDA-MB-231 [1]) [%] | normalised viability (CAL-148 [2]) [%] | normalised viability (HDQ-P1 [3]) [%] | normalised viability (BT-549 [4]) [%] | normalised viability (MDA-MB-453 [5]) [%] | normalised viability (BT-474 [6]) [%] | normalised viability (MFM-223 [7]) [%] | normalised viability (DU-4475 [8]) [%] | normalised viability (HCC1143 [9]) [%] | normalised viability (SK-BR-3 [10]) [%] | normalised viability (CAL-120) [%] | normalised viability (MDA-MB-468 [11]) [%] | normalised viability (CAL-51 [12]) [%] | normalised viability (CAL-85-1) [%] | normalised viability (HCC1937 [13]) [%] | normalised viability (HCC1599 [14]) [%] | normalised viability (MDA-MB-231 [15]) [%] | normalised viability (Hs578T) [%] | normalised viability (CAL-148 [16]) [%] | normalised viability (HDQ-P1 [17]) [%] | normalised viability (BT-549 [18]) [%] | normalised viability (MDA-MB-453 [19]) [%] | normalised viability (BT-474 [20]) [%] | normalised viability (MFM-223 [21]) [%] | normalised viability (DU-4475 [22]) [%] | normalised viability (HCC1143 [23]) [%] | normalised viability (SK-BR-3 [24]) [%] | normalised viability (MDA-MB-468 [25]) [%] | normalised viability (CAL-51 [26]) [%] | normalised viability (HCC1937 [27]) [%] | normalised viability (HCC1599 [28]) [%] | normalised viability (MDA-MB-436) [%]
CN1CCN(CCOc2cc(OC3CCOCC3)c3c(Nc4c(Cl)ccc5c4OCO5)ncnc3c2)CC1 [Saracatinib] | 85.5 | 89.8 | 113 | 89.4 | 105 | 93.9 | 105 | 107 | 80.9 | 91.5 | 82.4 | 104 | 106 | 88.7 | 99.4 | 97.2 | 76.5 | 95.7 | 80.7 | 104 | 112 | 105 | 105 | 99.6 | 105 | 84.3 | 85.3 | 104 | 106 | 96.2 | 108 | 109
CN(C)C[C@@H]1CCn2cc(c3ccccc32)C2=C(C(=O)NC2=O)c2cn(c3ccccc23)CCO1 [Ruboxistaurin] | 92.5 | 126 | 70.7 | 91.4 | 98.5 | 118 | 104 | 97 | 127 | 99.3 | 120 | 96.8 | 98.9 | 106 | 106 | 120 | 95.8 | 68.9 | 112 | 82.6 | 89 | 96.7 | 98.7 | 105 | 101 | 128 | 82.2 | 90.1 | 91.8 | 85.3 | 111 | 91.6
